# pIC50: −log10 of the molar value. The source made the active and inactive calls. The calls are words filed in the database; no cut-off is given here.
# Legend:
# Staphylococcus aureus [1] = experiment: Inhibition of Staphylococcus aureus FabG using acetoacetyl-CoA as substrate assessed as NADPH level at 300 uM by ELISA
# Staphylococcus aureus [2] = experiment: (§1) Inhibition of Staphylococcus aureus FabI-mediated trans-2-octenoyl N-acetylcysteamine reduction assessed as NADPH level by ELISA
# [3] = as §1
# Staphylococcus aureus [4] = experiment: Antibacterial activity against Staphylococcus aureus RN4220; type: functional
# Staphylococcus aureus [5] = experiment: Antibacterial activity against methicillin-resistant Staphylococcus aureus CCARM 3167; type: functional
# Bacillus cereus = experiment: Antibacterial activity against Bacillus cereus KCTC 1661; type: functional
# Staphylococcus aureus [6] = experiment: Antibacterial activity against quinolone-resistant Staphylococcus aureus CCARM 3505; type: functional
SMILES,inhibition (Staphylococcus aureus [1]),inhibition (Staphylococcus aureus [2]),pIC50 [3],MIC (Staphylococcus aureus [4]) [mg/L],MIC (Staphylococcus aureus [5]) [mg/L],MIC (Bacillus cereus) [mg/L],MIC (Staphylococcus aureus [6]) [mg/L]
COc1cc(O)c2c(c1)[C@@]1(OC2=O)C(C)=CC(=O)[C@]12C(=O)c1c(O)c(O)cc3oc(=O)c4c(O)cc(OC)c2c4c13 (relative stereo),inactive,Dose-dependent effect,4.79,32,32,32,32
COc1cc(O)c2c(=O)oc3c(-c4c(O)c(O)cc5oc(=O)c6c(O)cc(OC)cc6c45)c(O)c(O)cc3c2c1 [VERRULACTONE B],,,5.85,8,8,8,8
COc1cc(O)c2c(=O)oc3cc(O)c(O)c(-c4c(O)c(O)cc5oc(=O)c6c(O)cc(OC)cc6c45)c3c2c1 [VERRULACTONE A],,,6.04,8,8,8,8
Oc1cc(Cl)ccc1Oc1ccc(Cl)cc1Cl [TRICLOSAN],,,,0.01,0.01,0.01,0.01
COc1cc(O)c2c(=O)oc3cc(O)c(O)cc3c2c1,inactive,Dose-dependent effect,4.07,8,8,8,8

# From ChEMBL document CHEMBL3098038, “Verrulactone C with an unprecedented dispiro skeleton, a new inhibitor of Staphylococcus aureus enoyl-ACP reductase, from Penicillium verruculosum F375” (Bioorg Med Chem Lett, 2014)
